In US20210309631A1, “SALT OF CYCLOHEXANE DERIVATIVE” (priority 2018, published 2021):

Assays:
solubility in water = type: physicochemical; details: listed as sulfate Form A
[1] = In vivo individual difference analysis: individual plasma concentration versus time in rats (Example 8); set-up: species or system SD rats; details: intragastric 1 mg/kg, listed as Sulfate of Compound of Formula I
Method: Compound of Formula I and salts thereof (sulfate, hydrochloride salt, phosphate, maleate), supplied by Shanghai Jingxin Biopharmaceutical Co., Ltd. • Strain: SD rats; Gender: male; Body weight: about 250 grams; Source: shanghai Jiesijie Experimental Animal Co., Ltd Route: single intragastric administration; Capacity: measured in 10 mL/kg body weight Preparation: weighing appropriate amount of the free base or salt of the compound of Formula I, adding a small amount of 0.5% CMC-Na to grind, adding 0.5% CMC-Na to the volume. The concentration is measured as the base. 20 SD rats were divided into 5 groups with 4 rats in each group, fasted for 12 h and drank freely before administration. […] The blood was anticoagulated with 1% heparin, the plasma was separated by 8000 rpm centrifugation for 4 min and stored at -40° C. for testing. LC-MS/MS Method. Pharmacokinetic parameters after administration in rats were calculated using a non-compartmental model of DAS 2.0 software.

[2] = Plasma pharmacokinetics in SD rats after single intragastric administration (Example 7); type: in vivo; details: intragastric 1 mg/kg, Mean ± SD, non-compartmental model, listed as Sulfate
Method: The in vivo absorption process and characteristics of the free base and four salts thereof (sulfate, hydrochloride salt, phosphate, maleate) of compound (I) in rats were studied. The pharmacokinetics of a single intragastric administration of 1 mg/kg of a compound of Formula I and four salts thereof (calculated by free base concentration in salt form) were studied in SD rats.
SD rats were given a single intragastric administration of 1 mg/kg free base of Example 1 and four salts thereof (including hydrochloride salt from Example 2, sulfate from Example 3, phosphate from Example 4 and maleate from Example 5). There were 4 male rats in each group. The concentration of the compound of Formula I in plasma was determined, and the pharmacokinetic parameters were calculated according to the concentration-time curve.

[3] = Hygroscopicity (DVS) experiment, 25° C./80% relative humidity; type: physicochemical
Method: Dynamic vapor sorption curves were collected on a DVS Intrinsic by SMS (Surface Measurement Systems).
20 mg sample of the crystal forms of the Examples and Comparative Examples are placed in the environment of 25° C./80% relative humidity for a dynamic vapor sorption (DVS) test, and the test results […] are shown in Table 5.

[4] = DVS, 25° C./80% relative humidity, listed as Example 3 sulfate

## CN(C)C(=O)N[C@H]1CC[C@H](CCN2CCN(c3cccc4ccsc34)CC2)CC1 [Example 3, N′-[trans-4-[2-[7-(benzo[b]thiophene)-7-piperazinyl]ethyl]cyclohexyl]-N,N-dimethylurea]
Solubility in water
  solubility in water: greater than 8.0 mg/ml
[1]; 5 min after administration, Mean ± SD
  Plasma Concentrations of Compound of Formula I: 2.25 ± 0.476 ng/mL
[1]; 5 min after administration, rat 1♂
  Plasma Concentrations of Compound of Formula I: 1.54 ng/mL
[1]; 5 min after administration, rat 2♂
  Plasma Concentrations of Compound of Formula I: 2.41 ng/mL
[1]; 5 min after administration, rat 3♂
  Plasma Concentrations of Compound of Formula I: 2.56 ng/mL
[1]; 5 min after administration, rat 4♂
  Plasma Concentrations of Compound of Formula I: 2.48 ng/mL
[1]; 0.167 h after administration, Mean ± SD
  Plasma Concentrations of Compound of Formula I: 21.7 ± 2.45 ng/mL
[1]; 0.167 h after administration, rat 1♂
  Plasma Concentrations of Compound of Formula I: 24.0 ng/mL
[1]; 0.167 h after administration, rat 2♂
  Plasma Concentrations of Compound of Formula I: 18.4 ng/mL
[1]; 0.167 h after administration, rat 3♂
  Plasma Concentrations of Compound of Formula I: 23.0 ng/mL
[1]; 0.167 h after administration, rat 4♂
  Plasma Concentrations of Compound of Formula I: 21.3 ng/mL
[1]; 0.333 h after administration, Mean ± SD
  Plasma Concentrations of Compound of Formula I: 51.2 ± 2.32 ng/mL
[1]; 0.333 h after administration, rat 1♂
  Plasma Concentrations of Compound of Formula I: 50.4 ng/mL
[1]; 0.333 h after administration, rat 2♂
  Plasma Concentrations of Compound of Formula I: 54.4 ng/mL
[1]; 0.333 h after administration, rat 3♂
  Plasma Concentrations of Compound of Formula I: 51.0 ng/mL
[1]; 0.333 h after administration, rat 4♂
  Plasma Concentrations of Compound of Formula I: 48.9 ng/mL
[1]; 0.5 h after administration, Mean ± SD
  Plasma Concentrations of Compound of Formula I: 49.9 ± 10.4 ng/mL
[1]; 0.5 h after administration, rat 1♂
  Plasma Concentrations of Compound of Formula I: 56.0 ng/mL
[1]; 0.5 h after administration, rat 2♂
  Plasma Concentrations of Compound of Formula I: 36.0 ng/mL
[1]; 0.5 h after administration, rat 3♂
  Plasma Concentrations of Compound of Formula I: 48.0 ng/mL
[1]; 0.5 h after administration, rat 4♂
  Plasma Concentrations of Compound of Formula I: 59.4 ng/mL
[1]; 1 h after administration, Mean ± SD
  Plasma Concentrations of Compound of Formula I: 39.2 ± 6.84 ng/mL
[1]; 1 h after administration, rat 1♂
  Plasma Concentrations of Compound of Formula I: 42.6 ng/mL
[1]; 1 h after administration, rat 2♂
  Plasma Concentrations of Compound of Formula I: 30.0 ng/mL
[1]; 1 h after administration, rat 3♂
  Plasma Concentrations of Compound of Formula I: 38.5 ng/mL
[1]; 1 h after administration, rat 4♂
  Plasma Concentrations of Compound of Formula I: 45.8 ng/mL
[1]; 2 h after administration, Mean ± SD
  Plasma Concentrations of Compound of Formula I: 23.2 ± 7.54 ng/mL
[1]; 2 h after administration, rat 1♂
  Plasma Concentrations of Compound of Formula I: 32.7 ng/mL
[1]; 2 h after administration, rat 2♂
  Plasma Concentrations of Compound of Formula I: 14.5 ng/mL
[1]; 2 h after administration, rat 3♂
  Plasma Concentrations of Compound of Formula I: 24.1 ng/mL
[1]; 2 h after administration, rat 4♂
  Plasma Concentrations of Compound of Formula I: 21.3 ng/mL
[1]; 4 h after administration, Mean ± SD
  Plasma Concentrations of Compound of Formula I: 7.92 ± 3.01 ng/mL
[1]; 4 h after administration, rat 1♂
  Plasma Concentrations of Compound of Formula I: 10.3 ng/mL
[1]; 4 h after administration, rat 2♂
  Plasma Concentrations of Compound of Formula I: 4.31 ng/mL
[1]; 4 h after administration, rat 3♂
  Plasma Concentrations of Compound of Formula I: 10.5 ng/mL
[1]; 4 h after administration, rat 4♂
  Plasma Concentrations of Compound of Formula I: 6.57 ng/mL
[1]; 6 h after administration, Mean ± SD
  Plasma Concentrations of Compound of Formula I: 2.87 ± 1.10 ng/mL
[1]; 6 h after administration, rat 1♂
  Plasma Concentrations of Compound of Formula I: 3.08 ng/mL
[1]; 6 h after administration, rat 2♂
  Plasma Concentrations of Compound of Formula I: 1.35 ng/mL
[1]; 6 h after administration, rat 3♂
  Plasma Concentrations of Compound of Formula I: 3.99 ng/mL
[1]; 6 h after administration, rat 4♂
  Plasma Concentrations of Compound of Formula I: 3.05 ng/mL
[1]; 9 h after administration, Mean ± SD
  Plasma Concentrations of Compound of Formula I: 1.15 ± 0.444 ng/mL
[1]; 9 h after administration, rat 1♂
  Plasma Concentrations of Compound of Formula I: 1.30 ng/mL
[1]; 9 h after administration, rat 2♂
  Plasma Concentrations of Compound of Formula I: 0.643 ng/mL
[1]; 9 h after administration, rat 3♂
  Plasma Concentrations of Compound of Formula I: 1.68 ng/mL
[1]; 9 h after administration, rat 4♂
  Plasma Concentrations of Compound of Formula I: 0.973 ng/mL
[1]; 12 h after administration, Mean ± SD
  Plasma Concentrations of Compound of Formula I: 0.606 ± 0.221 ng/mL
[1]; 12 h after administration, rat 1♂
  Plasma Concentrations of Compound of Formula I: 0.718 ng/mL
[1]; 12 h after administration, rat 2♂
  Plasma Concentrations of Compound of Formula I: 0.317 ng/mL
[1]; 12 h after administration, rat 3♂
  Plasma Concentrations of Compound of Formula I: 0.827 ng/mL
[1]; 12 h after administration, rat 4♂
  Plasma Concentrations of Compound of Formula I: 0.561 ng/mL
[1]; 24 h after administration, Mean ± SD
  Plasma Concentrations of Compound of Formula I: 0.244 ± 0.161 ng/mL
[1]; 24 h after administration, rat 1♂
  Plasma Concentrations of Compound of Formula I: 0.213 ng/mL
[1]; 24 h after administration, rat 2♂
  Plasma Concentrations of Compound of Formula I: 0.135 ng/mL
[1]; 24 h after administration, rat 3♂
  Plasma Concentrations of Compound of Formula I: 0.148 ng/mL
[1]; 24 h after administration, rat 4♂
  Plasma Concentrations of Compound of Formula I: 0.479 ng/mL
[2]
  MRT0-∞: 2.87 ± 0.283 h
  Tmax: 0.417 ± 0.096 h
  t1/2: 2.67 ± 0.267 h
[3]; [4]
  Hygroscopicity: Slight
  Vapor sorption: 0.23%
[3]; after DVS testing
  The crystal form changes after DVS testing or not: No
